Assay results published in patent publication US9040712B2, “Thiadiazole analogs thereof and methods for treating SMN-deficiency-related-conditions” (NOVARTIS AG, priority 2013, dated 2015).

test system: SMN protein; assay: cellular SMN ELISA (SMN protein elevation); assay type: cell-based; conditions: myoblast cell line derived from SMNdelta7 mouse model; 24 hours compound treatment; concentration range 100 pM-10 uM
Method in brief: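 Myoblasts derived from the SMNdelta7 mouse model, 3000 cells/well, treated with compound (100 pM–10 uM) for 24 h, then lysed in modified RIPA buffer. SMN protein quantified by sandwich ELISA (anti-SMN mAb capture, rabbit polyclonal detection, HRP/TMB, 450 nm). Results given as fold activation over DMSO and EC50.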

Row | Structure (SMILES) | EC50 [nM] | SMN Activity Fold (fold activation over DMSO control) [fold]
1 | CN(c1nnc(-c2ccc(-c3cn[nH]c3)c(F)c2F)s1)C1CC(C)(C)NC(C)(C)C1 [Example 48, 5-(2,3-difluoro-4-(1H-pyrazol-4-yl)phenyl)-N-methyl-N-(2,2,6,6-tetramethylpiperidin-4-yl)-1,3,4-thiadiazol-2-amine] | 33 | 3.04
2 | CN1C[C@@H]2CN(c3nnc(-c4ccc(-c5cn[nH]c5)cc4Cl)s3)C[C@@H]2C1 [Example 80, 2-(2-chloro-4-(1H-pyrazol-4-yl)phenyl)-5-((3aR,6aS)-5-methylhexahydropyrrolo[3,4-c]pyrrol-2(1H)-yl)-1,3,4-thiadiazole] | 149 | 2.70
3 | COc1cc(C#N)ccc1-c1nnc(N(C)C2CC(C)(C)NC(C)(C)C2)s1 [Example 33, 3-methoxy-4-(5-(methyl(2,2,6,6-tetramethyl-piperidin-4-yl)amino)-1,3,4-thiadiazol-2-yl) benzonitrile] | 1040 | 2.16
4 | CN(c1nnc(-c2ccc(-n3cncn3)cc2Cl)s1)C1CC(C)(C)NC(C)(C)C1 [Example 68, 5-(2-chloro-4-(1H-1,2,4-triazol-1-yl)phenyl)-N-methyl-N-(2,2,6,6-tetramethylpiperidin-4-yl)-1,3,4-thiadiazol-2-amine] | 79 | 2.64
5 | CN(c1nnc(-c2ccc(-n3ccnc3)cc2Cl)s1)C1CC(C)(C)NC(C)(C)C1 [Example 71, 5-(2-chloro-4-(1H-imidazol-1-yl)phenyl)-N-methyl-N-(2,2,6,6-tetramethylpiperidin-4-yl)-1,3,4-thiadiazol-2-amine] | 32 | 2.40
6 | CN(c1nnc(-c2ccc(-c3ccc(N)nc3)cc2F)s1)C1CC(C)(C)NC(C)(C)C1 [Example 45, 5-(4-(6-aminopyridin-3-yl)-2-fluorophenyl)-N-methyl-N-(2,2,6,6-tetramethylpiperidin-4-yl)-1,3,4-thiadiazol-2-amine] | 163 | 2.26
7 | CN(c1nnc(-c2ccc(-c3ccn(C)c(=O)c3)cc2OC(F)(F)F)s1)C1CC(C)(C)NC(C)(C)C1 [Example 12, 1-Methyl-4-(4-(5-(methyl(2,2,6,6-tetramethyl-piperidin-4-yl)amino)-1,3,4-thiadiazol-2-yl)-3-(trifluoromethoxy)phenyl)pyridin-2(1H)-one] | 895 | 2.20
8 | COc1cc(-c2cnn(C)c2)ccc1-c1nnc(N2CC3(CCCNC3)C2)s1 [Example 85, 2-(2-methoxy-4-(1-methyl-1H-pyrazol-4-yl)phenyl)-5-(2,6-diazaspiro[3.5]nonan-2-yl)-1,3,4-thiadiazole] | 282 | 2.22
9 | Cc1cc(-c2cnn(C)c2)ccc1-c1nnc(N(C)C2CC(C)(C)NC(C)(C)C2)s1 [Example 11, N-Methyl-5-(2-methyl-4-(1-methyl-1H-pyrazol-4-yl)phenyl)-N-(2,2,6,6-tetramethylpiperidin-4-yl)-1,3,4-thiadiazol-2-amine] | 684 | 2.84
10 | COc1cc(-c2ccn(C)c(=O)c2)ccc1-c1nnc(OC2CC(C)(C)NC(C)(C)C2)s1 [Example 38, 4-(3-methoxy-4-(5-((2,2,6,6-tetramethyl-piperidin-4-yl)oxy)-1,3,4-thiadiazol-2-yl)phenyl)-1-methylpyridin-2(1H)-one] | 1520 | 2.12
11 | CN(c1nnc(-c2cc3cc(C#N)ccc3s2)s1)C1CC(C)(C)NC(C)(C)C1 [Example 108, 2-(5-(methyl(2,2,6,6-tetramethylpiperidin-4-yl)amino)-1,3,4-thiadiazol-2-yl)benzo[b]thiophene-5-carbonitrile] | 539 | 2.72
12 | CN(c1nnc(-c2ccc(-c3ccn[nH]3)c(F)c2F)s1)C1CC(C)(C)NC(C)(C)C1 [Example 49, 5-(2,3-difluoro-4-(1H-pyrazol-5-yl)phenyl)-N-methyl-N-(2,2,6,6-tetramethylpiperidin-4-yl)-1,3,4-thiadiazol-2-amine] | 81 | 2.42
13 | COc1cc(-c2cccnc2)ccc1-c1nnc(N(C)C2CC(C)(C)NC(C)(C)C2)s1 [Example 75, 5-(2-methoxy-4-(pyridin-3-yl)phenyl)-N-methyl-N-(2,2,6,6-tetramethylpiperidin-4-yl)-1,3,4-thiadiazol-2-amine] | 235 | 2.44
14 | CN(c1nnc(-c2cc(-c3ccnc(N)n3)ccc2Cl)s1)C1CC(C)(C)NC(C)(C)C1 [Example 57, 5-(5-(2-aminopyrimidin-4-yl)-2-chlorophenyl)-N-methyl-N-(2,2,6,6-tetramethylpiperidin-4-yl)-1,3,4-thiadiazol-2-amine] | 94 | 2.55
15 | COc1ccc2c(c1)CCN(c1nnc(N(C)C3CC(C)(C)NC(C)(C)C3)s1)C2=O [Example 64, 6-methoxy-2-(5-(methyl(2,2,6,6-tetramethylpiperidin-4-yl)amino)-1,3,4-thiadiazol-2-yl)-3,4-dihydroisoquinolin-1(2H)-one] | 1620 | 2.51
16 | COc1cc2ncccc2cc1-c1nnc(N(C)C2CC(C)(C)NC(C)(C)C2)s1 [Example 31, 5-(7-Methoxyquinolin-6-yl)-N-methyl-N-(2,2,6,6-tetramethylpiperidin-4-yl)-1,3,4-thiadiazol-2-amine] | 113 | 2.43
17 | CNc1ccn(-c2ccc(-c3nnc(N(C)C4CC(C)(C)NC(C)(C)C4)s3)c(OC)c2)n1 [Example 36, 5-(2-methoxy-4-(3-(methylamino)-1H-pyrazol-1-yl)phenyl)-N-methyl-N-(2,2,6,6-tetramethyl-piperidin-4-yl)-1,3,4-thiadiazol-2-amine] | 163 | 2.15
18 | CN(c1nnc(-c2cc(F)c(-c3cn[nH]c3)cc2Cl)s1)C1CC(C)(C)NC(C)(C)C1 [Example 54, 5-(2-chloro-5-fluoro-4-(1H-pyrazol-4-yl)phenyl)-N-methyl-N-(2,2,6,6-tetramethylpiperidin-4-yl)-1,3,4-thiadiazol-2-amine] | 47 | 3.16
19 | Fc1cc(-c2nnc(N3C[C@H]4CNC[C@H]4C3)s2)c(F)cc1-c1cn[nH]c1 [Example 53, 2-(2,5-difluoro-4-(1H-pyrazol-4-yl)phenyl)-5-((3aR,6aS)-hexahydropyrrolo[3,4-c]pyrrol-2(1H)-yl)-1,3,4-thiadiazole] | 70 | 2.56
20 | CN(c1nnc(-c2cc3ccccc3nc2O)s1)C1CC(C)(C)NC(C)(C)C1 [Example 23, 3-(5-(Methyl(2,2,6,6-tetramethylpiperidin-4-yl)amino)-1,3,4-thiadiazol-2-yl)quinolin-2-ol] | 231 | 2.66
21 | COc1cc(-c2ncc(C)o2)cc(O)c1-c1nnc(N(C)C2CC(C)(C)NC(C)(C)C2)s1 [Example 28, 3-Methoxy-2-(5-(methyl(2,2,6,6-tetramethylpiperidin-4-yl)amino)-1,3,4-thiadiazol-2-yl)-5-(5-methyloxazol-2-yl)phenol] | 20 | 2.70
22 | CN(c1nnc(-c2c(O)cc(-c3cn[nH]c3)cc2Cl)s1)C1CC(C)(C)NC(C)(C)C1 [Example 97, 3-chloro-2-(5-(methyl(2,2,6,6-tetramethylpiperidin-4-yl)amino)-1,3,4-thiadiazol-2-yl)-5-(1H-pyrazol-4-yl)phenol] |  | 2.45
23 | COc1cc(-c2cn[nH]c2)cc(F)c1-c1nnc(N2C[C@H]3CN(C)C[C@H]3C2)s1 [Example 62, 2-(2-fluoro-6-methoxy-4-(1H-pyrazol-4-yl)phenyl)-5-((3aR,6aS)-5-methylhexahydro-pyrrolo[3,4-c]pyrrol-2(1H)-yl)-1,3,4-thiadiazole] | 3640 | 2.01
24 | CN(c1nnc(-c2cc3ccccc3cc2O)s1)C1CC(C)(C)NC(C)(C)C1 [Example 22, 3-(5-(Methyl(2,2,6,6-tetramethylpiperidin-4-yl)amino)-1,3,4-thiadiazol-2-yl)naphthalen-2-ol.HBr] | 253 | 2.70
25 | COc1cc(-c2cn[nH]c2)cc(F)c1-c1nnc(N(C)C2CC(C)(C)NC(C)(C)C2)s1 [Example 61, 5-(2-fluoro-6-methoxy-4-(1H-pyrazol-4-yl)phenyl)-N-methyl-N-(2,2,6,6-tetramethylpiperidin-4-yl)-1,3,4-thiadiazol-2-amine] | 95 | 2.36
26 | COc1cc(-c2cn[nH]c2)c(F)c(F)c1-c1nnc(N(C)C2CC(C)(C)NC(C)(C)C2)s1 [Example 63, 5-(2,3-difluoro-6-methoxy-4-(1H-pyrazol-4-yl)phenyl)-N-methyl-N-(2,2,6,6-tetramethyl-piperidin-4-yl)-1,3,4-thiadiazol-2-amine] | 47 | 3.13
